Laboratory results taken from patent publication US20230114728A1 (Venatorx Pharmaceuticals, Inc., priority 2019, published 2023).
In brackets after ≈: the same amount, converted by molar mass.

Assays:
Assay in all cases: Broth microdilution MIC in CAMHB
Assay type in all cases: cell-based
[1] = test system: E. coli 901C; settings: Escherichia coli; E. coli 901C (hyper-permeable); MHB; read-out: Minimum Inhibitory Concentration, E. coli 901C
Procedure, shortened: (§1)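 Lowest compound concentration with no visible growth after 16-20 h at 37 °C defines MIC. Plates of 2-fold serial dilutions in cation-adjusted Mueller Hinton broth received 2-8×10^5 CFU/mL of exponentially grown cells, per CLSI methods; panel spans reference, hyper-permeable and efflux-pump-deleted strains.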

[2] = test system: K. pneumoniae 848844 producing SHV-11 and KPC-2; settings: Klebsiella pneumoniae, read-out: Minimum Inhibitory Concentration, K. pneumoniae 848844
Procedure, shortened: as §1

[3] = test system: A. baumannii ATCC 19606; settings: Acinetobacter baumannii, ATCC19606; MHB; read-out: Minimum Inhibitory Concentration, A. baumannii ATCC 19606
Procedure, shortened: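 CLSI microdilution; CAMHB; inoculum 2-8×10^5 CFU/mL from 3-5 h 37° C culture; 2-fold compound series; 16-20 h, 37° C; MIC = lowest well without visible growth.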

[4] = test system: K. pneumoniae UMM producing SHV-5 and KPC-2; settings: Klebsiella pneumoniae, read-out: Minimum Inhibitory Concentration, K. pneumoniae UMM
Procedure, shortened: as §1

[5] = test system: E. coli D22; settings: Escherichia coli; E. coli D22 (hyper-permeable); MHB; read-out: Minimum Inhibitory Concentration, E. coli D22
Procedure, shortened: as §1

[6] = test system: P. aeruginosa ATCC 27853; settings: Pseudomonas aeruginosa, ATCC27853; MHB; read-out: Minimum Inhibitory Concentration, P. aeruginosa ATCC 27853
Procedure, shortened: as §1

[7] = test system: P. aeruginosa ATCC 35151; settings: Pseudomonas aeruginosa, ATCC35151; MHB; hyper-permeable strain; read-out: Minimum Inhibitory Concentration, P. aeruginosa ATCC 35151
Procedure, shortened: as §1

[8] = test system: P. aeruginosa (ΔmexAB-oprM); settings: Pseudomonas aeruginosa, read-out: Minimum Inhibitory Concentration, P. aeruginosa ΔmexAB-OprM
Procedure, shortened: as §1

[9] = test system: E. coli ATCC 25922; settings: Escherichia coli, ATCC25922; E. coli ATCC 25922; MHB; read-out: Minimum Inhibitory Concentration, E. coli 25922
Procedure, shortened: as §1

[10] = test system: K. pneumoniae SI-117 producing VIM-1; settings: Klebsiella pneumoniae, read-out: Minimum Inhibitory Concentration, K. pneumoniae SI-117
Procedure, shortened: as §1

[11] = test system: E. coli AG100; settings: Escherichia coli; E. coli AG100 (wild-type parent); MHB; read-out: Minimum Inhibitory Concentration, E. coli AG100
Procedure, shortened: as §1

[12] = test system: E. coli AG100A; settings: Escherichia coli, read-out: Minimum Inhibitory Concentration, E. coli AG100A
Procedure, shortened: as §1

Compound	MIC [1] [µg/mL]	MIC [2] [µg/mL]	MIC [3] [µg/mL]	MIC [4] [µg/mL]	MIC [5] [µg/mL]	MIC [6] [µg/mL]	MIC [7] [µg/mL]	MIC [8] [µg/mL]	MIC [9] [µg/mL]	MIC [10] [µg/mL]	MIC [11] [µg/mL]	MIC [12] [µg/mL]
CCN1CCN(C(=O)N[C@H](C(=O)N[C@H]2Cc3cccc(C(=O)O)c3OB2O)c2cc(F)c(C(=O)O)cc2Cl)C(=O)C1=O (single isomer, unassigned) [Example 149]	0.5 to 1 (≈ 0.827 to 1.65 µM)	> 128	> 128	> 128	8 to 16 (≈ 13.2 to 26.5 µM)	> 128	2 to 4 (≈ 3.31 to 6.61 µM)	> 128	> 128	> 128	> 128	32 to 64 (≈ 52.9 to 106 µM)
CCN1CCN(C(=O)N[C@@H](C(=O)N[C@H]2Cc3cccc(C(=O)O)c3OB2O)c2ccc(C(=O)O)cc2Cl)C(=O)C1=O (single isomer, unassigned) [Example 151]	< 0.25	> 128	> 128	> 128	2 to 4 (≈ 3.41 to 6.82 µM)	> 128	0.5 to 1 (≈ 0.852 to 1.7 µM)	8 to 16 (≈ 13.6 to 27.3 µM)	> 128	> 128	32 to 64 (≈ 54.5 to 109 µM)	8 to 16 (≈ 13.6 to 27.3 µM)
CCN1CCN(C(=O)N[C@H](C(=O)N[C@H]2Cc3cccc(C(=O)O)c3OB2O)c2ccc(C(=O)O)cc2Cl)C(=O)C1=O (single isomer, unassigned) [Example 152]	0.5 to 1 (≈ 0.852 to 1.7 µM)	> 128	> 128	> 128	8 to 16 (≈ 13.6 to 27.3 µM)	> 128	0.5 to 1 (≈ 0.852 to 1.7 µM)	32 to 64 (≈ 54.5 to 109 µM)	> 128	> 128	> 128	32 to 64 (≈ 54.5 to 109 µM)
CCN1CCN(C(=O)N[C@H](C(=O)N[C@H]2Cc3cccc(C(=O)O)c3OB2O)c2ccc(C(=O)O)c(Cl)c2)C(=O)C1=O (single isomer, unassigned) [Example 155]	< 0.25	> 128	> 128	> 128	2 to 4 (≈ 3.41 to 6.82 µM)	> 128	0.5 to 1 (≈ 0.852 to 1.7 µM)	8 to 16 (≈ 13.6 to 27.3 µM)	> 128	> 128	32 to 64 (≈ 54.5 to 109 µM)	8 to 16 (≈ 13.6 to 27.3 µM)
NCCN1CCN(C(=O)N[C@H](C(=O)N[C@H]2Cc3cccc(C(=O)O)c3OB2O)c2cc(F)c(O)c(F)c2)C(=O)C1=O (single isomer, unassigned) [Example 158]	2 to 4 (≈ 3.48 to 6.95 µM)	> 128	> 128	> 128	8 to 16 (≈ 13.9 to 27.8 µM)	> 128	0.5 to 1 (≈ 0.869 to 1.74 µM)	32 to 64 (≈ 55.6 to 111 µM)	> 128	> 128	> 128	8 to 16 (≈ 13.9 to 27.8 µM)
NCCN1CCN(C(=O)N[C@@H](C(=O)N[C@H]2Cc3cccc(C(=O)O)c3OB2O)c2cc(F)c(O)c(F)c2)C(=O)C1=O (single isomer, unassigned) [Example 159]	0.5 to 1 (≈ 0.869 to 1.74 µM)	32 to 64 (≈ 55.6 to 111 µM)	> 128	8 to 16 (≈ 13.9 to 27.8 µM)	2 to 4 (≈ 3.48 to 6.95 µM)	32 to 64 (≈ 55.6 to 111 µM)	< 0.25	2 to 4 (≈ 3.48 to 6.95 µM)	8 to 16 (≈ 13.9 to 27.8 µM)	32 to 64 (≈ 55.6 to 111 µM)	8 to 16 (≈ 13.9 to 27.8 µM)	2 to 4 (≈ 3.48 to 6.95 µM)
NCCN1CCN(C(=O)N[C@H](C(=O)N[C@H]2Cc3cccc(C(=O)O)c3OB2O)c2cc(Cl)c(O)c(Cl)c2)C(=O)C1=O (single isomer, unassigned) [Example 165]	2 to 4 (≈ 3.29 to 6.58 µM)	> 128	> 128	> 128	32 to 64 (≈ 52.6 to 105 µM)	> 128	0.5 to 1 (≈ 0.822 to 1.64 µM)	8 to 16 (≈ 13.2 to 26.3 µM)	> 128	> 128	> 128	8 to 16 (≈ 13.2 to 26.3 µM)
NCCN1CCN(C(=O)N[C@@H](C(=O)N[C@H]2Cc3cccc(C(=O)O)c3OB2O)c2cc(Cl)c(O)c(Cl)c2)C(=O)C1=O (single isomer, unassigned) [Example 166]	< 0.25	32 to 64 (≈ 52.6 to 105 µM)	> 128	32 to 64 (≈ 52.6 to 105 µM)	2 to 4 (≈ 3.29 to 6.58 µM)	8 to 16 (≈ 13.2 to 26.3 µM)	< 0.25	2 to 4 (≈ 3.29 to 6.58 µM)	8 to 16 (≈ 13.2 to 26.3 µM)	32 to 64 (≈ 52.6 to 105 µM)	8 to 16 (≈ 13.2 to 26.3 µM)	0.5 to 1 (≈ 0.822 to 1.64 µM)
NCCN1CCN(C(=O)N[C@H](C(=O)N[C@H]2Cc3cccc(C(=O)O)c3OB2O)c2cc(F)c(O)c(F)c2F)C(=O)C1=O (single isomer, unassigned) [Example 167]	2 to 4 (≈ 3.37 to 6.74 µM)	> 128	> 128	32 to 64 (≈ 53.9 to 108 µM)	8 to 16 (≈ 13.5 to 27 µM)	> 128	0.5 to 1 (≈ 0.843 to 1.69 µM)	8 to 16 (≈ 13.5 to 27 µM)	32 to 64 (≈ 53.9 to 108 µM)	> 128	32 to 64 (≈ 53.9 to 108 µM)	8 to 16 (≈ 13.5 to 27 µM)
